Data: patent US12440481B2, “Esters and carbamates as modulators of sodium channels” (VERTEX PHARMACEUTICALS INCORPORATED, priority 2019, dated 2025)
pIC50: −log10 of the molar value.

Molecular target: human NaV 1.8 (Homo sapiens, UniProt Q9Y5Y9)
Experiment: E-VIPR Assay for Detecting and Measuring NaV Inhibition Properties
Format: cell-based
Conditions: HEK cells expressing a truncated form of human NaV 1.8; HS = human serum; read-out: EVIPR HS IC50
From the text: E-VIPR Assay for Detecting and Measuring NaV Inhibition Properties
Sodium ion channels are voltage-dependent proteins that can be activated by inducing membrane voltage changes by applying electric fields. The electrical stimulation instrument and methods of use, referred to as E-VIPR, are described in International Publication No. WO 2002/008748 A3 and C.-J. Huang et al. Characterization of voltage-gated sodium channel blockers by electrical stimulation and fluorescence detection of membrane potential, 24 Nature Biotech. 439-46 (2006), both of which are incorporated by reference in their entirety. The instrument comprises a microtiter plate handler, an optical system for exciting the coumarin dye while simultaneously recording the coumarin and oxonol emissions, a waveform generator, a current- or voltage-controlled amplifier, and parallel electrode pairs that are inserted into assay plate wells. Under integrated computer control, this instrument passes user-programmed electrical stimulus protocols to cells within the wells of the microtiter plate.
16-20 hours prior to running the assay on E-VIPR, HEK cells expressing a truncated form of human NaV 1.8 with full channel activity were seeded into microtiter 384-well plates, pre-coated with matrigel, at a density of 25,000 cells per well. 2.5-5% KIR2.1 Bacmam virus was added to the final cell suspension before seeding into cell plates. HEK cells were grown in Dulbecco's Modified Eagle's Medium (DMEM) supplemented with 10% FBS (Fetal Bovine Serum, qualified; Sigma #F4135), 1% NEAA (Non-Essential Amino Acids, Gibco #11140), 1% HEPES (Gibco #15630), 1% Pen-Strep (Penicillin-Streptomycin; Gibco #15140) and 5 μg/ml Blasticidin (Gibco #R210-01). Cells were expanded in vented cap cell culture flasks, with 90-95% humidity and 5% CO2.
Reagents and Stock Solutions:
• 100 mg/mL Pluronic F-127 (Sigma #P2443), in dry DMSO • Compound Plates: Corning 384-well Polypropylene Round Bottom #3656 • Cell Plates: 384-well tissue culture treated plates (Greiner #781091-1B) • 2.5-5% KIR 2.1 Bacmam virus (produced in-house), prepared as described in Section 3.3 of J. A. Fornwald et al., Gene Expression in Mammalian Cells Using BacMam, a Modified Baculovirus System, 1350 Methods in Molecular Biology 95-116 (2016), the entire contents of which are incorporated by reference. The concentration used can be dependent on viral titer of each batch. • 5 mM DiSBAC6 (3), a voltage sensitive oxonol acceptor (CAS number 169211-44-3; 5-[3-(1,3-dihexylhexahydro-4,6-dioxo-2-thioxo-5-pyrimidinyl)-2-propen-1-ylidene]-1,3-dihexyldihydro-2-thioxo-4,6(1H,5H)-pyrimidinedione), in dry DMSO. The preparation of DiSBAC6 (3) is analogous to that of DiSBAC4 (3) as described in Voltage Sensing by Fluorescence Resonance Energy Transfer in Single Cells, Gonzalez, J. E. and Tsien, R. Y. (1995) Biophys. J. 69, 1272-1280. • 5 mM CC2-DMPE, a commercially available membrane-bound coumarin phospholipid FRET donor (ThermoFisher Scientific catalog number K1017, CAS number 393782-57-5; tetradecanoic acid, 1,1′-[(1R)-1-[8-(6-chloro-7-hydroxy-2-oxo-2H-1-benzopyran-3-yl)-3-hydroxy-3-oxido-8-oxo-2,4-dioxa-7-aza-3-phosphaoct-1-yl]-1,2-ethanediyl] ester) was prepared in dry DMSO. […]

Sequence of human NaV 1.8 (Q9Y5Y9 whole entry, looked up): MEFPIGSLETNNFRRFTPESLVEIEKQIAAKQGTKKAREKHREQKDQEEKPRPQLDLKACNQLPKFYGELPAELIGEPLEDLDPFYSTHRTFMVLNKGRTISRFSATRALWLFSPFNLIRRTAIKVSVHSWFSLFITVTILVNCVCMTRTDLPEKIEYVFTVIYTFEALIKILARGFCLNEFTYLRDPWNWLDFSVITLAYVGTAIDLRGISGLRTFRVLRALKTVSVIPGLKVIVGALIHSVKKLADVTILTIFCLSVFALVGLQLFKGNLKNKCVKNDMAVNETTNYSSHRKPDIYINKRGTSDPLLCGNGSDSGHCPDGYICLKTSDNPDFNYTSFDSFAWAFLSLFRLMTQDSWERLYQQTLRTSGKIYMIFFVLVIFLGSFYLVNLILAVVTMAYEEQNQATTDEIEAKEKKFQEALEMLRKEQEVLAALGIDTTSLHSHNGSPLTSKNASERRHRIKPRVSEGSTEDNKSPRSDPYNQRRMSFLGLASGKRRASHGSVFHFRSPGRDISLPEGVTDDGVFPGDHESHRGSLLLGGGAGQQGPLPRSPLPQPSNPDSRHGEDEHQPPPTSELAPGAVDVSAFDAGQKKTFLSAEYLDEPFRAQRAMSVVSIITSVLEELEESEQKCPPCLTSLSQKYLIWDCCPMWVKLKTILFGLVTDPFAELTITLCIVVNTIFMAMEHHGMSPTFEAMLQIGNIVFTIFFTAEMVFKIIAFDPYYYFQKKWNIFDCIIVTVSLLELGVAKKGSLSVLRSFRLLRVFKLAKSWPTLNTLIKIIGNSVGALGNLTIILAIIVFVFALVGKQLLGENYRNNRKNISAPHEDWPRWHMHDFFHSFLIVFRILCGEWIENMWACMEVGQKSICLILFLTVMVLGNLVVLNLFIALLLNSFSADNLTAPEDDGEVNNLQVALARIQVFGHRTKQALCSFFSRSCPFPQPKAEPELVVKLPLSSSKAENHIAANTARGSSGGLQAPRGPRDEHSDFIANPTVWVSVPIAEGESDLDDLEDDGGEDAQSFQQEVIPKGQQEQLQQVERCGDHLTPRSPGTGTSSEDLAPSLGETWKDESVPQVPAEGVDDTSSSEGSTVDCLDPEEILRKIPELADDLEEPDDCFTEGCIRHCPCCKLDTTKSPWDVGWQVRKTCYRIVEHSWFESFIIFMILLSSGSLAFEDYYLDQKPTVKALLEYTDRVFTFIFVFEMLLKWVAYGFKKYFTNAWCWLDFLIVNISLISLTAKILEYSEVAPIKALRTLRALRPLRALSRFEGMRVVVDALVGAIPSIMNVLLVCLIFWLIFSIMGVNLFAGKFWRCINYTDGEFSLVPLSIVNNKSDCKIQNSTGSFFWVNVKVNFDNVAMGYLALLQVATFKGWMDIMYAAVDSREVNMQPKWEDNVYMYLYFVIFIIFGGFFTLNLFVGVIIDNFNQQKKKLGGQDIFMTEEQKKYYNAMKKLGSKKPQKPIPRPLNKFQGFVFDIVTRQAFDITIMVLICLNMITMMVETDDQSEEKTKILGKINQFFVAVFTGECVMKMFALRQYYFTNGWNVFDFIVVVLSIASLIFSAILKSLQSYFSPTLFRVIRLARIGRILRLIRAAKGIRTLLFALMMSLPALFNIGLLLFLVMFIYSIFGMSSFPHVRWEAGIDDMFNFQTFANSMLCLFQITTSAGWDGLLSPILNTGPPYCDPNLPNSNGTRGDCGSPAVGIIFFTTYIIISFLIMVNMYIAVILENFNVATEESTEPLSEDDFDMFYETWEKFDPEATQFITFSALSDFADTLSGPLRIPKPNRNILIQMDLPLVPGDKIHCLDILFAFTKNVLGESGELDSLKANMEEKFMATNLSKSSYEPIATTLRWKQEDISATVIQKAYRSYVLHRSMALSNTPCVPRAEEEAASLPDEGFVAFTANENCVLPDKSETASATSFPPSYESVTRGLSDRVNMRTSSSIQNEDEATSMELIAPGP

| pIC50 | Structure (SMILES) |
| --- | --- |
| 6.00 to 6.30 | COC(=O)c1cc(NC(=O)c2c(Oc3ccc(F)c(F)c3C)ccc(C(F)(F)F)c2C)c(C)cn1 [Compound 18, Methyl 4-[[6-(3,4-difluoro-2-methyl-phenoxy)-2-methyl-3-(trifluoromethyl)benzoyl]amino]-5-methyl-pyridine-2-carboxylate] |
| ≤ 6.00 | [2H]C([2H])([2H])Oc1cc(OC(F)(F)F)ccc1Oc1cc(C(F)(F)F)c(F)cc1C(=O)Nc1ccnc(NC(=O)OC(C)(C)C)c1 [Compound 7, tert-butyl N-[4-[[5-fluoro-2-[2-(trideuteriomethoxy)-4-(trifluoromethoxy)phenoxy]-4-(trifluoromethyl)benzoyl]amino]-2-pyridyl]carbamate] |
| 6.30 to 7.00 | COC(=O)c1ccc(NC(=O)c2c(Oc3ccc(OC(F)(F)F)cc3OC)ccc(C(F)(F)F)c2F)cn1 [Compound 15, Methyl 5-[[2-fluoro-6-[2-methoxy-4-(trifluoromethoxy)phenoxy]-3-(trifluoromethyl)benzoyl]amino]pyridine-2-carboxylate] |
| ≤ 6.00 | COC(=O)c1ccnc(NC(=O)c2c(Oc3ccc(OC(F)(F)F)c(F)c3OC)ccc(C(F)(F)F)c2C)c1 [Compound 24, Methyl 2-[[6-[3-fluoro-2-methoxy-4-(trifluoromethoxy)phenoxy]-2-methyl-3-(trifluoromethyl)benzoyl]amino]pyridine-4-carboxylate] |
| 6.30 to 7.00 | COC(=O)c1ccc(NC(=O)c2c(Oc3ccc(OC(F)(F)F)c(F)c3OC)ccc(C(F)(F)F)c2F)cn1 [Compound 14, Methyl 5-[[2-fluoro-6-[3-fluoro-2-methoxy-4-(trifluoromethoxy)phenoxy]-3-(trifluoromethyl)benzoyl]amino]pyridine-2-carboxylate] |
| 6.30 to 7.00 | COC(=O)c1nccc(NC(=O)c2c(Oc3ccc(OC(F)(F)F)c(F)c3OC)ccc(C(F)(F)F)c2F)c1F [Compound 30] |
| ≤ 6.00 | COC(=O)c1nccc(NC(=O)c2c(Oc3ccc(OC(F)(F)F)c(F)c3OC)ccc(C(F)(F)F)c2C)c1F [Compound 31, methyl 3-fluoro-4-(6-(3-fluoro-2-methoxy-4-(trifluoromethoxy)phenoxy)-2-methyl-3-(trifluoromethyl)benzamido)picolinate] |
| ≤ 6.00 | COC(=O)c1nccc(NC(=O)c2c(Oc3ccc(OC(F)(F)F)c(F)c3OC)ccc(C(F)(F)F)c2F)c1C [Compound 34, methyl 4-(2-fluoro-6-(3-fluoro-2-methoxy-4-(trifluoromethoxy)phenoxy)-3-(trifluoromethyl)benzamido)-3-methylpicolinate] |
| ≤ 6.00 | [2H]C([2H])([2H])Oc1cc(OC(F)(F)F)ccc1Oc1cc(C(F)(F)F)c(F)cc1C(=O)Nc1ccc(C(=O)OC)nc1 [Compound 1, Methyl 5-[[5-fluoro-2-[2-(trideuteriomethoxy)-4-(trifluoromethoxy)phenoxy]-4-(trifluoromethyl)benzoyl]amino]pyridine-2-carboxylate] |
| ≤ 6.00 | COC(=O)c1cc(NC(=O)c2c(Oc3ccc(OC(F)(F)F)cc3OC)ccc(C(F)(F)F)c2F)c(C2CC2)cn1 [Compound 26, methyl 5-cyclopropyl-4-(2-fluoro-6-(2-methoxy-4-(trifluoromethoxy)phenoxy)-3-(trifluoromethyl)benzamido)picolinate] |
